In US20090062382A1, “EXTERNAL PREPARATION FOR IMPROVING COITAL FUNCTION” (CARDIOVASCULAR INSTITUTE, LTD., priority 2003, published 2009):

System: penis
Test: Clinical study: penile temperature change by thermography
Format: in vivo, human
Conditions: intra-urethral infusion; FIG. 7
Procedure: Five (5) healthcare workers of 60 to 69 years old having no early-morning erection were subjected to the study. After obtaining verbal informed consent, the study was carried out from May 2001 through February 2003 as described below.
After keeping the subjects at rest with naked from the waist down for 5 minutes at room temperature of 25° C. and humidity of 60%, temperature of a penis, oxygen saturation in a penile sponge body, and hardness of a penis were measured. The measurement was carried out before administration of the preparation as reference and at 1, 3, 6, 12, 24 and 36 hours after administration, and the value of change (changed value±average error) were recorded. When there was no change at 3 hours after administration, the preparation was considered not effective and measurement thereafter was quitted.
Embrocation: 0.5 ml of each preparation was applied all over to a glans and a penis.
The relevant infusion apparatus was inserted into a urethra, and 0.5 ml of the preparation was infused by rotating a cylinder.
Temperature rise reflects increased blood-flow. So, penile temperature was measured by a thermography (Thermo Tracer TH5108, NEC San-ei Instruments, Ltd.). As this instrument can display a measurement site and temperature of the site numerically on a screen, measurements before and after administrations were possible to be performed at the same position. […]

## CC#CCC(C)[C@H](O)/C=C/[C@@H]1[C@H]2c3cccc(CCCC(=O)[O-])c3O[C@H]2C[C@H]1O.[Na+] (relative stereo) [beraprost sodium, (+)-(1R*,2R*,3aS*,8bS*)-2,3,3a,8b-tetrahydro-2-hydroxy-1-[(e)-(3S*)-3-hydroxy-4-methyl-1-octene-6-ynyl]-1H-cyclopenta [b]benzofuran-5-butanoic acid sodium salt]
  level and duration of temperature increase: low
